These results are taken from patent US6586606B2, “Process for the preparation of 3-aryl-benzofuran-2-ones” (Ciba Specialty Chemicals Corporation, priority 2000, dated 2003).

SMILES strings stand for the structures.

Data set [1] is described as follows: Stabilisation of polyethylene in permanent contact with water (extraction test, oxidation induction time). Particulars: 0.05% compound (302) with 0.10% Irganox 1010, 0.05% Irgafos, 0.10% calcium stearate in PE-HD; deionised water, 50 days at 80° C. Here is the method: Stabilisation of polyethylene which is in permanent contact with water.
0.10% by weight of calcium stearate and a stabilizer mixture comprising 0.10% by weight of Irganox®1010 (pentaerythritol tetrakis[3-(3,5-di-tert-butyl-4-hydroxyphenyl)propionate]), 0.05% by weight of Irgafos®68 (tris(2,4-di-tert-butylphenyl)phosphite) and 0.05% by weight of compound (302) (Table 3) is added dry to a polyethylene polymer (Hostalene® CRP 100; PE-HD) taken direct from a reactor and are incorporated therein in a Pappenmaier mixer (type 20) within 2 minutes.
In an extruder, of Schwabenthan, the stabilized polyethylene is homogenised and processed to granulate. For the extraction tests in water, 200 mm by 150 mm by 2 mm test plates are pressed from the granulate of the individual formulations using a table press. To ease the demoulding of the test plates, the pressing process is carried out between two aluminium foils. […]
The test plates are subjected to the above test conditions for 50 days at 80° C. Upon termination of the extraction test, the residual stabilizer content and the oxidation induction time of the test plates are determined.
The residual content of sterically hindered phenol, Irganox®1010, is determined using an internal standard in an HPLC appliance of the Spectra Physics SP 8800 type, equipped with autosampler and UV/VIS detector of the Spectra 200 type. […]

For the compound `CC(C)(C)c1cc(C(C)(C)C)c2oc(N)c(-c3ccccc3)c2c1` [Compound (301), 2-amino-3-phenyl-5,7-di-tert-butyl-benzofurane], the melting point (in general, the temperature, or range, at which the solid turns liquid) was 174 to 178 °C.

`CC(C)(C)c1cc2c(c(C(C)(C)C)c1)OC(=O)C2c1ccccc1` (centres unmarked) [(101), 5,7-di-tert-butyl-3-phenyl-3H-benzofuran-2-one] displayed a melting point of 116 to 119 °C.

Turning to `COc1ccc(-c2c(N)oc3c(C(C)(C)C)cc(C(C)(C)C)cc23)cc1OC` [(303), 2-amino-5,7-di-tert-butyl-3-(3,4-dimethoxyphenyl)-benzofurane], the melting point was 172 to 174 °C.

Regarding `Cc1ccc(-c2c(N)oc3c(C(C)(C)C)cc(C(C)(C)C)cc23)cc1C` [Compound (302), 2-amino-5,7-di-tert-butyl-3-(3,4-dimethylphenyl)-benzofurane], the melting point was 128 to 130 °C. Further, the “stability of polyolefins in permanent contact with extracting media” value in data set [1] is “improved”.
